Some results are limits rather than exact numbers.

In test [1] the target is Angiopoietin-1 receptor (Homo sapiens) (UniProt Q02763). Briefly: Selectivity interaction (Kinase panel (Z-LYTE Assay)) EUB0001632a TEK. The following applies: at 10 µM.
For test [2], the system named is Mast/stem cell growth factor receptor Kit (Homo sapiens), P10721 [V559D]. Briefly: (§1) Selectivity interaction (KinomeScan (DiscoverX)) EUB0000655a KIT. To be noted: at 10 µM.
In test [3] the test system is Mast/stem cell growth factor receptor Kit (Homo sapiens), P10721 [D816H]. Described as §1. The following applies: at 10 µM.
Test [4] concerns Mast/stem cell growth factor receptor Kit (Homo sapiens), P10721 [V559D,T670I]. The description is as §1. To be noted: at 10 µM.
The test system of test [5] is Mast/stem cell growth factor receptor Kit (Homo sapiens), P10721 [A829P]. The description is as §1. The following applies: at 10 µM.
The subject of test [6] is Mast/stem cell growth factor receptor Kit (Homo sapiens), P10721 [V559D,V654A]. Described as §1. To be noted: at 10 µM.
Test [7] has as its system Mast/stem cell growth factor receptor Kit (Homo sapiens), P10721 [L576P]. Described as §1. The following applies: at 10 µM.
Test [8] relates to Mast/stem cell growth factor receptor Kit (Homo sapiens), P10721 [D816V]. The test is described as §1. The following applies: at 10 µM.
Test [9] addresses Mast/stem cell growth factor receptor Kit (Homo sapiens, UniProt P10721). The description is as §1. The following applies: at 10 µM.
The target in test [10] is T1, Serine/threonine-protein kinase RIO1 (Homo sapiens) (UniProt Q9BRS2).
T1 sequence (whole entry): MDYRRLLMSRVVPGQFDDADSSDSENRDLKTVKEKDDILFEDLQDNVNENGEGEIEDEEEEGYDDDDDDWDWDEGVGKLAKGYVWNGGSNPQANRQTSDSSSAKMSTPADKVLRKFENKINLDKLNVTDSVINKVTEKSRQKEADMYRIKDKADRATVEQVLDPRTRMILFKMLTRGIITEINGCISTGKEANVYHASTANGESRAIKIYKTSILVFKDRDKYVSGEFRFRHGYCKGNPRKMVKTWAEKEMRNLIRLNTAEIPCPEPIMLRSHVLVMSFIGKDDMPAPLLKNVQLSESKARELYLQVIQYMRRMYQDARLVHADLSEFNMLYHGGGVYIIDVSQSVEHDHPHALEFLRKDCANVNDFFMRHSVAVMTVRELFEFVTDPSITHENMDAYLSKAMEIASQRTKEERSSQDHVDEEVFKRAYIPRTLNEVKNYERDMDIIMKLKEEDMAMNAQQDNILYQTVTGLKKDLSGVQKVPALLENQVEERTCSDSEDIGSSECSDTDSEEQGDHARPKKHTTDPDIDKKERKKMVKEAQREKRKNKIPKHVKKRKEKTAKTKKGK
Briefly: Selectivity interaction (KinomeScan (DiscoverX)) EUB0001619a RIOK1. The following applies: at 1 µM.

For test [11], the target named is Death-associated protein kinase 1 (Homo sapiens, UniProt P53355). Briefly: Selectivity interaction (KinomeScan (DiscoverX)) EUB0001619a DAPK1. The following applies: at 1 µM.
Test [12] deals with Serine/threonine-protein kinase WNK1 (Homo sapiens) (UniProt Q9H4A3). Briefly: Selectivity interaction (KinomeScan (DiscoverX)) EUB0001619a WNK1. The following applies: at 1 µM.
In test [13] the target is Receptor-interacting serine/threonine-protein kinase 2 (Homo sapiens, UniProt O43353). Briefly: Selectivity interaction (KinomeScan (DiscoverX)) EUB0001049a RIPK2. The following applies: at 1 µM.
For test [14], the target named is Death-associated protein kinase 2 (Homo sapiens) (UniProt Q9UIK4). Briefly: Selectivity interaction (KinomeScan (DiscoverX)) EUB0001049a DAPK2. The following applies: at 1 µM.
The target in test [15] is Ephrin type-A receptor 7 (Homo sapiens) (UniProt Q15375). The experiment in a line: Selectivity interaction (KinomeScan (DiscoverX)) EUB0001049a EPHA7. The following applies: at 1 µM.
The target in test [16] is Kappa-type opioid receptor (Homo sapiens, UniProt P41145). The experiment in a line: Selectivity interaction (Panel of kinases, GPCRs, ion channels and transporters (enzymatic assay)) EUB0000223bCl OPRK1.
For test [17], the target named is T2, Rhodopsin kinase GRK1 (Homo sapiens) (UniProt Q15835).
T2 sequence (whole entry): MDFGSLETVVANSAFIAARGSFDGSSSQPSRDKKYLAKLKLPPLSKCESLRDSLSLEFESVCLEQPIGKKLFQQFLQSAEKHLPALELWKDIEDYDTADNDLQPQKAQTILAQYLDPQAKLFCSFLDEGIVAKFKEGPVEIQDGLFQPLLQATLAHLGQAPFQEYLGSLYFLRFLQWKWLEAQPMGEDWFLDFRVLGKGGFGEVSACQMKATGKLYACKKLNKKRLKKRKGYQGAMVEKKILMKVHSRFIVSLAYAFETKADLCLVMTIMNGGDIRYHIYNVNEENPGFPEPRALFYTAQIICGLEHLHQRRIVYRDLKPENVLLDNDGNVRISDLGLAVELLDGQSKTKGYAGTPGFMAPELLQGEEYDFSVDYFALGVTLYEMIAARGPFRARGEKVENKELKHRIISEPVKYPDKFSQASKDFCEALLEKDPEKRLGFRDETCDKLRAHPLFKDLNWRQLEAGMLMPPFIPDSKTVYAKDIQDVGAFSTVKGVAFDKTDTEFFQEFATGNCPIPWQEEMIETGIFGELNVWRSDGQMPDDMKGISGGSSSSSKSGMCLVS
Briefly: Selectivity interaction (KinomeScan (DiscoverX)) EUB0000045b GRK1.

Test [18] concerns the target Mitogen-activated protein kinase 9 (Homo sapiens, UniProt P45984). To be noted: at 10 µM.

Sequence of Ephrin type-A receptor 7 (Homo sapiens) (Q15375 28-998 limits assumed): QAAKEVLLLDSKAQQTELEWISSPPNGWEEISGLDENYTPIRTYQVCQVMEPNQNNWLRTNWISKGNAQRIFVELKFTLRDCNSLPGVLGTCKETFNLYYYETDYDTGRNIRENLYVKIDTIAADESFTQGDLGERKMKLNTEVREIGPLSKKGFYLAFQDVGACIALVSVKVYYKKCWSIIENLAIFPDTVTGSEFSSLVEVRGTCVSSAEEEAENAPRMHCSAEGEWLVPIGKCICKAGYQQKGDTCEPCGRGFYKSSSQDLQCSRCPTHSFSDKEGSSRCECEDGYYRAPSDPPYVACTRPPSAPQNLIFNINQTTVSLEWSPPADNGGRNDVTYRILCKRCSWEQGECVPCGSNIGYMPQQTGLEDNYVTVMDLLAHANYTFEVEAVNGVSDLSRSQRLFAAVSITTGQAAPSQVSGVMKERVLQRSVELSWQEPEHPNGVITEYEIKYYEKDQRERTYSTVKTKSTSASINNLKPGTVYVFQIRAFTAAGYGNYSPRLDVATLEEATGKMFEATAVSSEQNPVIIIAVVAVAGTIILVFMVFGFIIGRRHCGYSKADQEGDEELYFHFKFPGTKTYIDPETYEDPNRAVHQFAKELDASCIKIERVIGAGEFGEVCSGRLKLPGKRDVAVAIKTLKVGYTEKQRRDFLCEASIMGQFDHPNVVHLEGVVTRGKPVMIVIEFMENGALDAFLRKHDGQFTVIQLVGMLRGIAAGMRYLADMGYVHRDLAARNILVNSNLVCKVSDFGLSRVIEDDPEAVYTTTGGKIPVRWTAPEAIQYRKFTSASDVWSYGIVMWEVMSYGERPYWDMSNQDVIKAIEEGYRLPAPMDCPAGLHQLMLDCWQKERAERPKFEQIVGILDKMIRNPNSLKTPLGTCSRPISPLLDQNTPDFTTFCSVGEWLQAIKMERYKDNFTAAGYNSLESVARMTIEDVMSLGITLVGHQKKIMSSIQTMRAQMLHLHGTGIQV
Sequence of Death-associated protein kinase 2 (Homo sapiens) (Q9UIK4 whole entry, looked up): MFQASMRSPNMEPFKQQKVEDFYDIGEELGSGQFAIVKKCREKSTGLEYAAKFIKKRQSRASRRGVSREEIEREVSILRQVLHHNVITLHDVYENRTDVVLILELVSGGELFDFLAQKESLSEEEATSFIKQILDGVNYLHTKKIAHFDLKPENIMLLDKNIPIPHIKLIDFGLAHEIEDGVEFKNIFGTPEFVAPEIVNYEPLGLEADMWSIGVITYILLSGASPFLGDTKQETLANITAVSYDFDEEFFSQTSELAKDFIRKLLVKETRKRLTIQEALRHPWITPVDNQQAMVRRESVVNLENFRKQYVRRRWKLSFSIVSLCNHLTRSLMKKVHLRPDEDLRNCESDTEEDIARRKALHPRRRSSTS
Sequence of Mast/stem cell growth factor receptor Kit (Homo sapiens), P10721 [A829P] (P10721 whole entry A829P): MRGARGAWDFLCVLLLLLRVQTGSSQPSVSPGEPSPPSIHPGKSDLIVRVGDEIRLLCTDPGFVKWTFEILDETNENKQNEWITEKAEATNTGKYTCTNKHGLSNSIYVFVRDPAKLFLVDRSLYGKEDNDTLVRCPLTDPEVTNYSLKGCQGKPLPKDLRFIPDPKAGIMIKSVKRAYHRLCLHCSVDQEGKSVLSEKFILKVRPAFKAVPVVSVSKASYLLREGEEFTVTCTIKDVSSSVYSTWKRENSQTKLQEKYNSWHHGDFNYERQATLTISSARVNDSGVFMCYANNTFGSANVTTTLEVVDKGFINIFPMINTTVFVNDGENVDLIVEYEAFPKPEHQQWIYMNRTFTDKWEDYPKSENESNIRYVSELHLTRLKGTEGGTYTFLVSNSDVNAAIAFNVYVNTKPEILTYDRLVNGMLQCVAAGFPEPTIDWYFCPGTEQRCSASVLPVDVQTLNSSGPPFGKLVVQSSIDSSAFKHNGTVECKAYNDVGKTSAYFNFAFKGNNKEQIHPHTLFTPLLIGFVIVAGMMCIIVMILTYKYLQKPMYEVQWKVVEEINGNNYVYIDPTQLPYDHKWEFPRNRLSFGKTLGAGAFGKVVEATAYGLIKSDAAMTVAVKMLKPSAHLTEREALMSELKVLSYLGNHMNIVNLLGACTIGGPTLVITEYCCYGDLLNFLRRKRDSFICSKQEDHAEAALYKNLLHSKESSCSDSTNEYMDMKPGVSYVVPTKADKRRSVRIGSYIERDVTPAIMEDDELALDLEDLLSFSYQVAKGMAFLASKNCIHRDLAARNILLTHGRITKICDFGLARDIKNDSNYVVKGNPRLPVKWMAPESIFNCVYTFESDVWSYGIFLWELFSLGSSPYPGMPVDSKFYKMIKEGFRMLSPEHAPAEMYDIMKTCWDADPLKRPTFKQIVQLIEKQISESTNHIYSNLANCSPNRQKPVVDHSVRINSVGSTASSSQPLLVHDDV
Sequence of Mast/stem cell growth factor receptor Kit (Homo sapiens), P10721 [V559D] (P10721 whole entry V559D): as the sequence (P10721 whole entry A829P) above, with V559D, P829A counted along it
Sequence of Angiopoietin-1 receptor (Homo sapiens) (Q02763 whole entry): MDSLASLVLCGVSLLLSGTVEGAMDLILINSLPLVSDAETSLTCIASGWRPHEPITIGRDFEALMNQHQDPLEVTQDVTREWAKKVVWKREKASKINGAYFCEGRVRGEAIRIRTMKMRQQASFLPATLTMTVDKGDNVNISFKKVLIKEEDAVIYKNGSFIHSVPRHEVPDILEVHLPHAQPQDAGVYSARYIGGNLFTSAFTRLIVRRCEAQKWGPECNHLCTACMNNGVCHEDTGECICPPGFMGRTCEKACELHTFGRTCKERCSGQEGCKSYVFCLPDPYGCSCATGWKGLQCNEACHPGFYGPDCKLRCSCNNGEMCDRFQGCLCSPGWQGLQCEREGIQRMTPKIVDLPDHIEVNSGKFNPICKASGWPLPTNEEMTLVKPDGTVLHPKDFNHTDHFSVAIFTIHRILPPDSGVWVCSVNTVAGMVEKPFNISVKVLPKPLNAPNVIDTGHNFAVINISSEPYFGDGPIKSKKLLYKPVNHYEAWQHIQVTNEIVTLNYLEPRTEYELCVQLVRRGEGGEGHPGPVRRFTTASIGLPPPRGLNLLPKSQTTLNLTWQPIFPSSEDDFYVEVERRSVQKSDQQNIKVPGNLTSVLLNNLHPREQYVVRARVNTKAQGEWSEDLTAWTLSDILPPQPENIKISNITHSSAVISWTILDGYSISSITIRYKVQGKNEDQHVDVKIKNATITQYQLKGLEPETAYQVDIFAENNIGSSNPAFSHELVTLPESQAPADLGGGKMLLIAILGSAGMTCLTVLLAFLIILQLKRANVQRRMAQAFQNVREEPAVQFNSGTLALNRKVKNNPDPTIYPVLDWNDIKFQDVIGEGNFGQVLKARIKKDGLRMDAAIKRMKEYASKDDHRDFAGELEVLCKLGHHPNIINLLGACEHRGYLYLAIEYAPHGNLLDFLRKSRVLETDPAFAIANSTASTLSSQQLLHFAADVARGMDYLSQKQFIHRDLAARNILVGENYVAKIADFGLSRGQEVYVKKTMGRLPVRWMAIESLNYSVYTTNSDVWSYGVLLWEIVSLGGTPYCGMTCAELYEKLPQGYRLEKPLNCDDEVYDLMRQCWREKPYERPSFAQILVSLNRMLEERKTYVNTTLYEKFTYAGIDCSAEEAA
Sequence of Mitogen-activated protein kinase 9 (P45984 whole entry, looked up): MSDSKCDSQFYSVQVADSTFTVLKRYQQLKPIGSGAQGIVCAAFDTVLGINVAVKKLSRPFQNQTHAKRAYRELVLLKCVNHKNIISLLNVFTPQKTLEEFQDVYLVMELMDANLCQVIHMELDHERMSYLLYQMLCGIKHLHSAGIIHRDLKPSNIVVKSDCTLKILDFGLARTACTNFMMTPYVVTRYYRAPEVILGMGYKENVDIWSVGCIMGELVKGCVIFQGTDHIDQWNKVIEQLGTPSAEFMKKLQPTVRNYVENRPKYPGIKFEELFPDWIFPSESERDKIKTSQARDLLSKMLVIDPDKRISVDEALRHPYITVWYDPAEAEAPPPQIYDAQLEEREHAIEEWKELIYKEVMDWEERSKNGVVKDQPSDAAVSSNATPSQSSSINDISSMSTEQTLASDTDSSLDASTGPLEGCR

`Cn1cc(-n2cnc3c(NCc4nc5cc(Cl)c(Cl)cc5[nH]4)nc(N4CCOCC4)nc32)cn1`: the % of control in test [1] is -5.98%.
On to `CN(C)CCOc1ccc(-c2nc(-c3ccncc3)c(-c3ccc4c(c3)CC/C4=N\O)[nH]2)cc1`, for which the % of control in [2] came to 65%; in [3], 100%; in test [4], 93%; in test [5], 86%; in test [6] it was 93%; in test [7] it was 58%. The values for the % of control in [8] and in test [9] were 79% and 75%, respectively.
Regarding `N#Cc1cccc(-c2c[nH]c3ncnc(N4CCOCC4)c23)c1`, the % of control in [10] came out at 38%; in [11] it was 89%; in test [12], 100%.
On to `COc1cc(Nc2nc(C)cc(-c3cnn4nc(OC)ccc34)n2)cc(C(F)(F)F)c1`, for which the % of control in test [13] turned out to be 100%; in [14], 100%; in test [15], 77%.
On to `COc1cc(C(=O)N2CC[C@@H](O)[C@@H](N)C2)cc2nc(-c3cc4ccccc4n3CC3CC3)n(C)c12`, for which, in test [16], the pXC50 is less than 4 M.
In the case of `C=CC(=O)Nc1cc(-n2c(=O)ccc3cnc4ccc(-c5ccc(NS(C)(=O)=O)cc5)cc4c32)ccc1C`, the % of control in test [17] (at 1 µM) is 100%; in [17] (at 10 µM), 99%.
For `COCC(=O)NC/C=C/c1ccc2ncnc(Nc3ccc(Oc4ccc(C)nc4)c(C)c3)c2c1` [CP-724714], the % of control in test [18] was 53%.

(Values after ChEMBL document CHEMBL5465560, “Selectivity Literature for EUbOPEN Chemogenomic Library” (2024).)
